This test deals with T1, ENPP1 (Homo sapiens, UniProt P22413).
T1 sequence (P22413 1-925): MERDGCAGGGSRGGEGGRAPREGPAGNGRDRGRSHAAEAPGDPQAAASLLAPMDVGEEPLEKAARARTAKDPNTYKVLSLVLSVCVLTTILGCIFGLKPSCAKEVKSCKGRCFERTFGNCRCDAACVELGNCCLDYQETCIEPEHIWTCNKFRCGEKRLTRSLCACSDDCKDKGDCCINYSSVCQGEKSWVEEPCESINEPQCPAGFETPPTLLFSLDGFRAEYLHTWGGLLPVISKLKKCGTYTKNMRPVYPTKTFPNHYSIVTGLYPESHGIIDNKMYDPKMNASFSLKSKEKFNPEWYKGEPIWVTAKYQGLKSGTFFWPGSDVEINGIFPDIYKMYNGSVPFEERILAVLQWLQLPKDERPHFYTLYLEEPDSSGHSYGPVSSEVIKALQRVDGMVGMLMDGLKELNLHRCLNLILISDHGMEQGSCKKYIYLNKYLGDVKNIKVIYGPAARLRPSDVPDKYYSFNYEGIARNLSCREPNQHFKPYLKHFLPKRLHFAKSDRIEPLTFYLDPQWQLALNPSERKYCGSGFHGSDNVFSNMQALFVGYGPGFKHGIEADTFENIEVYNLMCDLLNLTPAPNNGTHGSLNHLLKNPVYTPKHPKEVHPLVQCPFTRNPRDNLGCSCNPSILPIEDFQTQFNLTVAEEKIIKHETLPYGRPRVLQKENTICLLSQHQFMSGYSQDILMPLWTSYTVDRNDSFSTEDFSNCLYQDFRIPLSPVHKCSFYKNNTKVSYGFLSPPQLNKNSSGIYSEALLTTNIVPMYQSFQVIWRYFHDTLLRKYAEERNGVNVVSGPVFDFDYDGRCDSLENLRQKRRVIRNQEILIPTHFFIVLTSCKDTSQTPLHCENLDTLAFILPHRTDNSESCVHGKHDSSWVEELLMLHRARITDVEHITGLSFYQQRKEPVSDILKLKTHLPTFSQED
The experiment in a line: Indirect quantitation of 2',3'-cGAMP hydrolysis (AMP-Glo Assay kit). It counts as biochemical. Conditions: cGAMP substrate; Ki from IC50 by Cheng-Prusoff; read-out: ENPP1 Inhibition -cGAMP: Ki.

One may read the Ki as a dissociation constant, usually derived from enzyme kinetics or from competition with a known ligand.

Consider `COc1cc2nc(-c3ccccn3)nc(N3CCC(CCNS(N)(=O)=O)CC3)c2cc1OC` [Example 4, N-(2-(1-(6,7-dimethoxy-2-(pyridin-2-yl)quinazolin-4-yl)piperidin-4-yl)ethyl)sulfamide], for which the Ki is over 1000 nM.

For `COc1cc2nc(-c3ccccc3)nc(N3CCC(CCNS(N)(=O)=O)CC3)c2cc1OC` [Example 8, N-(2-(1-(6,7-dimethoxy-2-phenylquinazolin-4-yl)piperidin-4-yl)ethyl)sulfamide], the inhibition constant Ki is over 1000 nM.

Take `Cc1ncnc(N2CCC(CCNS(N)(=O)=O)CC2)c1C` [Example 15, N-(2-(1-(5,6-dimethylpyrimidin-4-yl)piperidin-4-yl)ethyl)sulfamide]: the inhibition constant Ki was over 1000 nM.

Consider `Cc1cc(N2CCC(CCNS(N)(=O)=O)CC2)ncn1` [Example 16, N-(2-(1-(6-methylpyrimidin-4-yl)piperidin-4-yl)ethyl)sulfamide], for which the inhibition constant Ki is over 1000 nM.

On to `NS(=O)(=O)NCCC1CCN(c2ncnc3c[nH]nc23)CC1` [Example 27, N-(2-(1-(1H-pyrazolo[4,3-d]pyrimidin-7-yl)piperidin-4-yl)ethyl)sulfamide], for which the Ki is over 1000 nM.

Turning to `COc1ccc(-c2cc(N3CCC(NS(N)(=O)=O)CC3)ncn2)cc1OC` [Example 36, N-(1-(6-(3,4-dimethoxyphenyl)pyrimidin-4-yl)piperidin-4-yl)sulfamide], the Ki was over 1000 nM.

For the compound `COc1ccc(-c2cc(N3CCC(CNS(N)(=O)=O)CC3)ncn2)cc1OC` [Example 37, N-((1-(6-(3,4-dimethoxyphenyl)pyrimidin-4-yl)piperidin-4-yl)methyl)sulfamide], the Ki was over 1000 nM.

Regarding `COc1ccc(-c2cc(N3CCC(CCNS(N)(=O)=O)CC3)ncn2)cc1OC` [Example 38, N-(2-(1-(6-(3,4-dimethoxyphenyl)pyrimidin-4-yl)piperidin-4-yl)ethyl)sulfamide], the Ki was over 1000 nM.

With `Cc1ncnc(N2CCC(NS(N)(=O)=O)CC2)c1C` [Example 39, N-(1-(5,6-dimethylpyrimidin-4-yl)piperidin-4-yl)sulfamide], the Ki is over 1000 nM.

As for `COc1cc2ncnc(N3CCc4c(cccc4S(=O)(=O)N4CCN(C)CC4)C3)c2cc1OC` [Example 41, 6,7-dimethoxy-4-(5-((4-methylpiperazin-1-yl)sulfonyl)-3,4-dihydroisoquinolin-2(1H)-yl)quinazoline], the inhibition constant Ki was over 1000 nM.

In the case of `COc1cc(NC(C)=O)c(C(=O)N2CCC(CCNS(N)(=O)=O)CC2)cc1OC` [Example 44, N-(4,5-dimethoxy-2-(4-(2-(sulfamoylamino)ethyl)piperidine-1-carbonyl)phenyl)acetamide], the Ki was over 1000 nM.

As to `COc1ccc(C(=O)N2CCC(CCNS(N)(=O)=O)CC2)cc1OC` [Example 47, N (2-(1-(3,4-dimethoxybenzoyl)piperidin-4-yl)ethyl)sulfamide], the Ki is over 1000 nM.

`NS(=O)(=O)NCCC1CCN(C(=O)c2ccccc2)CC1` [Example 50, N-(2-(1-(benzoyl)piperidin-4-yl)ethyl)sulfamide]: the Ki is over 1000 nM.

Regarding `COc1cc2ncc(C#N)c(Oc3ccc(S(N)(=O)=O)cc3)c2cc1F` [Example 76, 4-((3-cyano-6-fluoro-7-methoxyquinolin-4-yl)oxy)benzenesulfonamide], the inhibition constant Ki is under 100 nM.

`COc1ccc2c(Oc3ccc(N(C)S(N)(=O)=O)cc3)ccnc2c1` [Example 77, N-(4-((7-methoxyquinolin-4-yl)oxy)phenyl)-N-methylsulfamide]: the Ki was under 100 nM.

Take `COc1ccc2c(Oc3ccc(NS(N)(=O)=O)c(OC)c3)ccnc2c1` [Example 78, N-(2-methoxy-4-((7-methoxyquinolin-4-yl)oxy)phenyl)sulfamide]: the inhibition constant (Ki) was under 100 nM.

On to `COc1ccc2c(Oc3cc(F)c(NS(N)(=O)=O)cc3F)ccnc2c1` [Example 79, N-(2,5-difluoro-4-((7-methoxyquinolin-4-yl)oxy)phenyl)sulfamide], for which the inhibition constant Ki is under 100 nM.

For `COc1cc2ncnc(-c3ccc(NS(N)(=O)=O)cc3)c2cc1OC` [Example 113, N-(4-(6,7-dimethoxyquinazolin-4-yl)phenyl)sulfamide], the Ki is 100 to 1000 nM.

As to `COc1cc2ncnc(N3CCC(CCN(C)C)CC3)c2cc1OC` [Example 115, 2-(1-(6,7-dimethoxyquinazolin-4-yl)piperidin-4-yl)-N,N-dimethylethan-1-amine], the inhibition constant Ki was 100 to 1000 nM.

As to `COc1cc2ncnc(N3CCC(CCNS(=O)(=O)c4ccccc4)CC3)c2cc1OC` [Example 116, N-(2-(1-(6,7-dimethoxyquinazolin-4-yl)piperidin-4-yl)ethyl)benzenesulfonamide], the Ki is over 1000 nM.

Turning to `COc1cc2ncnc(N3CCC(CCNC(N)=O)CC3)c2cc1OC` [Example 117, 1-(2-(1-(6,7-dimethoxyquinazolin-4-yl)piperidin-4-yl)ethyl)urea], the inhibition constant (Ki) was in the range of 100 to 1000 nM.

On to `COc1cc2nc(N(C)C)nc(N3CCC(CCNC=O)CC3)c2cc1OC` [Example 118, N-(2-(1-(2-(dimethylamino)-6,7-dimethoxyquinazolin-4-yl)piperidin-4-yl)ethyl)formamide], for which the inhibition constant Ki is over 1000 nM.

Take `COc1cc2ncnc(N3CCN(C(=O)CN)CC3)c2cc1OC` [Example 119, 2-amino-1-(4-(6,7-dimethoxyquinazolin-4-yl)piperazin-1-yl)ethan-1-one]: the Ki was over 1000 nM.

Regarding `CNc1cc(OC)c(OC)cc1C(=O)N1CCC(CCNS(N)(=O)=O)CC1` [Example 123, N-(2-(1-(4,5-dimethoxy-2-(methylamino)benzoyl)piperidin-4-yl)ethyl)sulfamide], the Ki is over 1000 nM.

Take `COc1cnc(C(=O)N2CCC(CCNS(N)(=O)=O)CC2)cc1OC` [Example 124, N-(2-(1-(4,5-dimethoxypicolinoyl)piperidin-4-yl)ethyl)sulfamide]: the inhibitory constant (Ki) was over 1000 nM.

Take `CNC(=O)c1cc(Oc2ccc(NS(N)(=O)=O)cc2)ccn1` [Example 127, N-methyl-4-(4-(sulfamoylamino)phenoxy)picolinamide]: the inhibition constant (Ki) is over 1000 nM.

`Cn1cnc2ncnc(-c3ccc(CNS(N)(=O)=O)cc3)c21` [Example 128, N-(4-(7-methyl-7H-purin-6-yl)benzyl)sulfamide]: the Ki is 100 to 1000 nM.

Turning to `COc1cc(C#N)c(C(=O)N2CCC(CCNS(N)(=O)=O)CC2)cc1OC` [Example 129, N-(2-(1-(2-cyano-4,5-dimethoxybenzoyl)piperidin-4-yl)ethyl)sulfamide], the Ki was over 1000 nM.

As for `CNC(=O)c1cc(N2CCC(CCNS(N)(=O)=O)CC2)ncn1` [Example 130, N-methyl-6-(4-(2-(sulfamoylamino)ethyl)piperidin-1-yl)pyrimidine-4-carboxamide], the Ki was over 1000 nM.

In the case of `COc1cc2ncnc(-c3ccc4c(c3)CCC(NS(N)(=O)=O)C4)c2cc1OC` (stereo not shown) [Example 131, N-(6-(6,7-dimethoxyquinazolin-4-yl)-1,2,3,4-tetrahydronaphthalen-2-yl)sulfamide], the Ki was over 1000 nM.

Consider `COc1cc2ncnc(N3CCC(CCNS(=O)(=O)N4CCOCC4)CC3)c2cc1OC` [Example 132, N-(2-(1-(6,7-dimethoxyquinazolin-4-yl)piperidin-4-yl)ethyl)morpholine-4-sulfonamide], for which the inhibition constant (Ki) lay in the range of 100 to 1000 nM.

For the compound `COc1ccc(NC(=O)C2CCC(CNS(N)(=O)=O)CC2)cc1OC` (stereo not shown) [Example 133, N-(3,4-dimethoxyphenyl)-4-((sulfamoylamino)methyl)cyclohe xane-1-carboxamide], the Ki was over 1000 nM.

Consider `Cn1ncc2c(N3CCC(CCNS(N)(=O)=O)CC3)ccnc21` [Example 135, N-(2-(1-(1-methyl-1H-pyrazolo[3,4-b]pyridin-4-yl)piperidin-4-yl)ethyl)sulfamide], for which the Ki was in the range of 100 to 1000 nM.

Take `Cn1cc(Br)c2ncnc(N3CCC(CCNS(N)(=O)=O)CC3)c21` [Example 138, N-(2-(1-(7-bromo-5-methyl-SH-pyrrolo[3,2-d]pyrimidin-4-yl)piperidin-4-yl)ethyl)sulfamide]: the Ki is 100 to 1000 nM.

For the compound `CCNS(=O)(=O)NCCC1CCN(c2ncnc3cc(OC)c(OC)cc23)CC1` [Example 139, 2-(1-(6,7-dimethoxyquinazolin-4-yl)piperidin-4-yl)ethan-1-amino(N-ethyl)sulfonamide], the inhibitory constant (Ki) was over 1000 nM.

Consider `COc1cc2ncnc(N3CCC(CCNS(=O)(=O)NC(C)C)CC3)c2cc1OC` [Example 142, 2-(1-(6,7-dimethoxyquinazolin-4-yl)piperidin-4-yl)ethan-1-amino(N-prop-2-yl)sulfonamide], for which the inhibition constant (Ki) is over 1000 nM.

Turning to `COc1cc2ncnc(N3CCC(CCNS(=O)(=O)N(C)C)CC3)c2cc1OC` [Example 143, 2-(1-(6,7-dimethoxyquinazolin-4-yl)piperidin-4-yl)ethan-1-amino(N,N-dimethyl)sulfonamide], the inhibitory constant (Ki) was over 1000 nM.

Source of the values: patent US20230183239A1, “ECTONUCLEOTIDE PYROPHOSPHATASE-PHOSPHODIESTERASE 1 (ENPP-1) INHIBITORS AND USES THEREOF” (AbbVie Inc., priority 2017, published 2023).
